Measurements published in the NIST ThermoML archive (doi:10.1016/j.jct.2007.09.001).
± gives the expanded uncertainty stated by the source.

Conditions: 298.15 K, Calvet calorimetry with correction to 298 K for gas heat capacity

Row | molar enthalpy of sublimation (Crystal) | molar enthalpy of vaporization (Liquid) | SMILES
1 | 14.7 ± 0.765 kcal/mol |  | Cc1cc(C)n(C)n1 [1,3,5-trimethylpyrazole]
2 |  | 15.8 ± 0.956 kcal/mol | Cc1cc[nH]n1 [3-methylpyrazole]
